Laboratory results as given in the supplement of paper PMC6045584.
± gives the standard deviation of the averaged measurements.

Tests used:
TIOGUANINE = compound: Nc1nc2[nH]cnc2c(=S)[nH]1 [TIOGUANINE]; experiment: surviving fraction relative to DMSO-only wells; higher = less growth inhibition; conditions: exposure time: 5 days
Outline: (§1)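 At 250–500 cells per well in 384-well plates, log-phase tumour cell lines were seeded and, 24 hours on, exposed continuously for five days to inhibitors at 0.5, 1, 5, 10, 50, 100, 500 and 1000 nM. Viability readout was CellTiter-Glo luminescence, reported as surviving fraction normalised to the median of DMSO-only wells.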

SAPACITABINE = compound: CCCCCCCCCCCCCCCC(=O)Nc1ccn([C@@H]2O[C@H](CO)[C@@H](O)[C@@H]2C#N)c(=O)n1 [SAPACITABINE]; experiment: as above; conditions: exposure time: 5 days
Outline: as §1

Test System	surviving fraction (TIOGUANINE; 0.5 nM)	surviving fraction (TIOGUANINE; 1 nM)	surviving fraction (TIOGUANINE; 5 nM)	surviving fraction (TIOGUANINE; 10 nM)	surviving fraction (TIOGUANINE; 50 nM)	surviving fraction (TIOGUANINE; 100 nM)	surviving fraction (TIOGUANINE; 500 nM)	surviving fraction (TIOGUANINE; 1000 nM)	surviving fraction (SAPACITABINE; 0.5 nM)	surviving fraction (SAPACITABINE; 1 nM)	surviving fraction (SAPACITABINE; 5 nM)	surviving fraction (SAPACITABINE; 10 nM)	surviving fraction (SAPACITABINE; 50 nM)	surviving fraction (SAPACITABINE; 100 nM)	surviving fraction (SAPACITABINE; 500 nM)	surviving fraction (SAPACITABINE; 1000 nM)
HUO3N1 BONE	0.992 ± 0.071	1.02 ± 0.098	1.1 ± 0.059	0.98 ± 0.058	1.02 ± 0.019	1.06 ± 0.049	1.06 ± 0.055	1.02 ± 0.018	0.915 ± 0.032	0.908 ± 0.036	0.931 ± 0.037	0.935 ± 0.024	0.886 ± 0.056	0.766 ± 0.056	0.528 ± 0.012	0.438 ± 0.019
JIMT1 BREAST	0.966 ± 0.018	0.975 ± 0.023	0.984 ± 0.034	0.9947 ± 0.0086	1.05 ± 0.015	1.03 ± 0.025	0.9495 ± 0.0077	0.912 ± 0.0067	0.862 ± 0.018	0.8617 ± 0.0045	0.899 ± 0.032	0.87 ± 0.025	0.966 ± 0.046	0.859 ± 0.04	0.632 ± 0.015	0.558 ± 0.032
JURKAT HAEMATOPOIETIC AND LYMPHOID TISSUE	1.05 ± 0.034	1.07 ± 0.032	1.07 ± 0.04	1.043 ± 0.0097	1.02 ± 0.039	1.04 ± 0.018	1.01 ± 0.012	0.565 ± 0.013	0.944 ± 0.031	0.973 ± 0.03	0.52 ± 0.0059	0.245 ± 0.008	0.078 ± 0.0036	0.034 ± 0.001	0.0213 ± 0.00058	0.023
LM7 BONE	0.966 ± 0.054	0.984 ± 0.068	1.02 ± 0.064	1.05 ± 0.068	1.08 ± 0.058	1.07 ± 0.039	0.965 ± 0.1	0.939 ± 0.13	0.703 ± 0.044	0.708 ± 0.036	0.761 ± 0.015	0.641 ± 0.077	0.599 ± 0.037	0.4143 ± 0.0032	0.191 ± 0.036	0.162 ± 0.021
LNCAP PROSTATE	0.933 ± 0.078	0.912 ± 0.028	0.955 ± 0.17	0.964 ± 0.09	1.07 ± 0.11	0.976 ± 0.085	0.971 ± 0.06	0.977 ± 0.07	1.04 ± 0.033	1.09 ± 0.059	0.998 ± 0.053	0.913 ± 0.031	0.51 ± 0.012	0.329 ± 0.035	0.208 ± 0.014	0.159 ± 0.012
MCF7 BREAST	0.824 ± 0.015	0.804 ± 0.075	0.846 ± 0.032	0.835 ± 0.025	0.903 ± 0.045	0.875 ± 0.069	0.872 ± 0.054	0.889 ± 0.055	0.826 ± 0.037	0.803 ± 0.02	0.807 ± 0.015	0.716 ± 0.022	0.923 ± 0.028	0.833 ± 0.046	0.705 ± 0.033	0.538 ± 0.0081
MDAMB134 BREAST	0.993 ± 0.11	1.04 ± 0.12	0.909 ± 0.017	0.928 ± 0.11	1.04 ± 0.0028	1.1 ± 0.17	0.88 ± 0.049	0.858 ± 0.073	0.689 ± 0.09	0.627 ± 0.083	0.65 ± 0.046	0.7515 ± 0.0035	0.785 ± 0.036	0.821 ± 0.11	0.817 ± 0.058	0.916 ± 0.054
MDAMB157 BREAST	0.867 ± 0.072	0.857 ± 0.052	0.958 ± 0.013	0.921 ± 0.071	0.986 ± 0.078	0.961 ± 0.085	0.88 ± 0.055	0.89 ± 0.039	0.911 ± 0.034	0.859 ± 0.058	0.806 ± 0.077	0.755 ± 0.025	0.632 ± 0.069	0.619 ± 0.02	0.446 ± 0.02	0.306 ± 0.036
MDAMB436 BREAST	0.892 ± 0.057	0.837 ± 0.05	0.864 ± 0.059	0.932 ± 0.028	1.03 ± 0.096	0.906 ± 0.13	0.921 ± 0.094	0.928 ± 0.065	0.861 ± 0.07	0.795 ± 0.08	0.75 ± 0.074	0.719 ± 0.075	0.561 ± 0.029	0.497 ± 0.053	0.445 ± 0.049	0.352 ± 0.013
MDAMB453 BREAST	1.01 ± 0.073	0.999 ± 0.053	1.04 ± 0.027	1.02 ± 0.04	1.08 ± 0.03	1.03 ± 0.029	0.98 ± 0.13	0.864 ± 0.09	0.988 ± 0.053	0.968 ± 0.053	1 ± 0.058	1.03 ± 0.07	1.01 ± 0.022	1.01 ± 0.067	0.641 ± 0.033	0.407 ± 0.03
MDAMB468 BREAST	1.02 ± 0.079	0.995 ± 0.025	1.08 ± 0.056	1.06 ± 0.1	1.1 ± 0.056	1.19 ± 0.087	1.04 ± 0.087	1.05 ± 0.042	0.811 ± 0.012	0.862 ± 0.087	0.88 ± 0.069	0.847 ± 0.086	0.792 ± 0.03	0.56 ± 0.07	0.204 ± 0.018	0.193 ± 0.028
